According to patent US6713477B1, “Hydroxamic acid derivatives” (Sumitomo Pharmaceuticals Company, Limited, priority 2000, dated 2004):

What was measured:
[1] = target: T1, MMP-3 (Matrix Metalloproteinase-3, Stromelysin-1) (Homo sapiens, UniProt P08254); assay: Inhibition assay against MMP-3 (fluorescent MCA-labeled substrate); format: biochemical; details: Table 10; active MMP at 20 nM, 37° C., 1.5 hours; read-out: IC50 MMP3
T1 construct: C-terminal truncated form of human prostromelysin cDNA; made in house; host or cells: E. coli
Protocol: C-terminal truncated form of human prostromelysin cDNA (proMMP-3, cDNA sequence in Nature, 348, 699-704 (1990)) was subcloned, expressed in E.coli and purified as described previously (Biochemistry 30, 6476-6483 (1991)). Activation of proMMP-3 was achieved by treatment with 1 mM 4-aminophenylmercuric acetate at 37° C. for 60 min.
(§1) Enzymatic assays were performed in accordance with C. G. Knight's method (FEBS Lett., 296(3), 263-266 (1992)). The fluorescent MCA-labeled substrate, (7-methoxycumaline-4-yl)-Pro-Leu-Gly-Leu-L-[N-(2,4-dinitrophenyl)-L-2,3-diaminopropionyl]-Ala-Arg-NH2 (Peptide Institute. Inc.) was used for measuring the kinetics of inhibition for each tested compound.
(§2) The substrate was incubated at 37° C. for 1.5 hours (MMP-1; for 24 hours) with active MMP (at 20 nM, except MMP-13 at 5 nM) and a test compound in assay buffer containing 100 mM Tris-HCl (pH7.5), 10 mM CaCl2, 100 MM NaCl and 0.05% Brij-35.

[2] = target: T2, MMP-13 (Matrix Metalloproteinase-13, Collagenase-3) (Homo sapiens, UniProt P45452); assay: Inhibition assay against MMP-13 (fluorescent MCA-labeled substrate); format: biochemical; details: Table 10; active MMP-13 at 5 nM, 37° C., 1.5 hours; read-out: IC50 MMP13
T2 construct: made in house; host or cells: E. coli BL21 (DE3), pET11a
Description: To subclone C-terminal truncated form of procollagenase-3 (proMMP-13) cDNA (J.Biol.Chem., 269(24), 16766-16773 (1994)), two synthetic oligonucleotide primer (5′-[…]-3′ and 5′-[…]-3′: the former incorporates sequences for a unique NdeI site (underlined) including initial methionine, and the latter has sequences for a stop codon and BamHI site (underlined)) were used with human chondrocyte cDNA library (CLONTECH) in PCR. With these primers and Pfu DNA polymerase (STRATAGENE) in PCR, 767 bp fragment was generated, which encodes 84 amino acid prosequence and 164 amino acids of mature MMP-13. The fragment was digested with NdaI and BamHI, ligated into the NdeI and BamHI sites of pET11a (STRATAGENE), transformed in E.coli BL21 (DE3) and cultured. The crude cell extract was prepared as described in Biochemistry. The extract was dialyzed against 20 mM Tris-HCl(pH7.2)/5 mM CaCl2/0.02% NaN3 and applied to a SP-Sepharose HP column (1.6×10 cm, Amersham-Pharmacia Biotech), and elution was performed with 50 mL linear gradient of 0 to 0.3 M NaCl (partially purified proMMP-13 was eluted at 0.2 M approximately). The fraction was dialyzed against 20 mM Tris-HCl(pH7.9)/5 mM CaCl2,/200 mM (NH4)2SO4/0.02% NaN3 and applied to a Phenyl Sepharose HP column (1.6×5 cm, Amersham-Pharmacia Biotech), and elution was performed with 20 mL linear gradient of 0.2 to 0 M (NH4)2SO4 (pure proHMP-13 was eluted at 50 mM approximately). The fraction was concentrated by YM-5 ultrafiltration membrane and activated with 4-aminophenylmercuric acetate and active MMP-13 was separated from propeptide fragments by gel filtration chromatography as described in Biochemistry.
as §1, §2

T1 sequence (P08254 100-272 limits assumed): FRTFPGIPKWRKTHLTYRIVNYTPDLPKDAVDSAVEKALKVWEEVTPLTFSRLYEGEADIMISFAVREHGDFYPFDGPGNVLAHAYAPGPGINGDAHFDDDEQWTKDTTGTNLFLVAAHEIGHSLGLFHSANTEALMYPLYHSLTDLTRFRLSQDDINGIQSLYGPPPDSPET

Compound | IC50 [1] [nM] | IC50 [2] [nM]
CCCN(CCC)C(=O)CC1SC(c2ccc(Cl)cc2)N(C(CC(C)C)C(=O)NO)C1=O (stereo not shown) [Example 306] | 987 | 122
COc1ccc(C2SC(CC(=O)NCc3ccco3)C(=O)N2C(Cc2ccc(OC(C)(C)C)cc2)C(=O)NO)cc1 (stereo not shown) [Example 333] | 794 | 70
Cc1cc(NC(=O)CC2SC(c3ccc(Cl)cc3)N(C(Cc3ccc(OC(C)(C)C)cc3)C(=O)NO)C2=O)no1 (stereo not shown) [Example 255] | 1200 | 106
CCCNC(=O)CC1SC(c2ccc(Cl)cc2)N(C(Cc2ccc(OC(C)(C)C)cc2)C(=O)NO)C1=O (stereo not shown) [Example 283] | 614 | 37
CC(C)CC(C(=O)NO)N1C(=O)CSC1c1ccc(-c2cc(C(F)(F)F)nn2C)s1 (stereo not shown) [Example 88] | 3800 | 62
COc1ccc(CC2Sc3ccccc3N([C@H](C(=O)NO)C(C)C)C2=O)cc1 (stereo partly shown) [Example 436] | 938 | 671
COc1ccc(/C=C2\Sc3cc(Cl)ccc3N(CC(=O)NO)C2=O)cc1 [Example 370] | 1200 | 35
CCN(CC)c1ccc(CC2Sc3ccccc3N(CC(=O)NO)C2=O)cc1 (stereo not shown) [Example 422] | > 10000 | 4810
C=CCNC(=O)CC1SC(c2ccc(Cl)cc2)N(C(CC(C)C)C(=O)NO)C1=O (stereo not shown) [Example 262] | 850 | 66
COc1ccc(C2SCC(=O)N2C(Cc2ccc(OC(C)(C)C)cc2)C(=O)NO)cc1 (stereo not shown) [Example 109] | 599 | 43
COc1ccc(C2SC(CC(=O)NO)C(=O)N2CCCc2ccccc2)cc1 (stereo not shown) [Example 13] | > 50000 | 13200
COc1ccc(CC2Sc3cc(C)c(C)cc3N(CC(=O)NO)C2=O)cc1 (stereo not shown) [Example 431] | 238 | 13
COc1ccc(C2SC(CC(=O)NCCCN3CCCCC3C)C(=O)N2C(Cc2ccc(OC(C)(C)C)cc2)C(=O)NO)cc1 (stereo not shown) [Example 330] | 745 | 66
CNC(=O)CC1SC(c2ccc(OC)cc2)N(C(Cc2ccc(OC(C)(C)C)cc2)C(=O)NO)C1=O (stereo not shown) [Example 324] | 733 | 63
O=C(CN1C(=O)C(Cc2ccc(-c3ccccc3)cc2)Sc2ccccc21)NO (stereo not shown) [Example 419] | 514 | 63
O=C(CN1C(=O)C(Cc2ccc(Oc3ccccc3)cc2)Sc2ccccc21)NO (stereo not shown) [Example 409] | 279 | 12
CCC(C)C(C(=O)NO)N1C(=O)CSC1c1ccc(OC)c(F)c1 (stereo not shown) [Example 175] | 1140 | 112
COC(C)(C)NC(=O)CC1SC(c2ccc(Cl)cc2)N(C(Cc2ccc(OC(C)(C)C)cc2)C(=O)NO)C1=O (stereo not shown) [Example 257] | 267 | 23
CC(C)CC(C(=O)NO)N1C(=O)C(CC(=O)NCc2ccco2)SC1c1ccc(Cl)cc1 (stereo not shown) [Example 218] | 422 | 56
COc1ccc(CC2Sc3cc(C(=O)N[C@H](CO)CC(C)C)ccc3N(CC(=O)NO)C2=O)cc1 (stereo partly shown) [Example 865] | 53 | 4.9
COc1ccc(CC2Sc3cccc(Cl)c3N(CC(=O)NO)C2=O)cc1 (stereo not shown) [Example 429] | 5620 | 3600
CCCC(C(=O)NO)N1C(=O)CSC1c1ccc(Oc2ccccc2)cc1 (stereo not shown) [Example 143] | 1270 | 64
CC(C)CC(C(=O)NO)N1C(=O)CSC1c1ccc(Cl)cc1 (stereo not shown) [Example 130] | 1140 | 56
COc1ccc(CC2Sc3ccccc3N([C@H](C)C(=O)NO)C2=O)cc1 (stereo partly shown) [Example 438] | 1660 | 375
COc1ccc(C2SC(CC(=O)NC3CCCCC3)C(=O)N2C(CC(C)C)C(=O)NO)cc1 (stereo not shown) [Example 239] | 274 | 35

Compound | IC50 [1] [nM] | IC50 [2] [nM]
O=C(CN1C(=O)/C(=C/c2ccccc2)Sc2ccccc21)NO [Example 388] | 23000 | 1600
COc1ccc(C2SC(CC(=O)NC(C)C)C(=O)N2C(Cc2ccccc2)C(=O)NO)cc1 (stereo not shown) [Example 479] | 270 | 19
COc1ccc(/C=C2\Sc3ccc(C(F)(F)F)cc3N(CC(=O)NO)C2=O)cc1 [Example 371] | 880 | 36
O=C(NO)C(Cc1c[nH]c2ccccc12)N1C(=O)CSC1c1ccc(Cl)cc1 (stereo not shown) [Example 121] | 2550 | 128
COCCNC(=O)CC1SC(c2ccc(Cl)cc2)N(C(Cc2ccc(OC(C)(C)C)cc2)C(=O)NO)C1=O (stereo not shown) [Example 316] | 442 | 26
COc1ccc(C2SCC(=O)N2C(COC(C)(C)C)C(=O)NO)cc1 (stereo not shown) [Example 105] | 6720 | 231
COc1ccc(C2SCC(=O)N2C(CCSC)C(=O)NO)cc1F (stereo not shown) [Example 71] | 9070 | 249
CC(C)CC(C(=O)NO)N1C(=O)C(CC(=O)NCc2ccco2)[S+]([O-])C1c1ccc(Oc2ccc(Cl)cc2)cc1 (stereo not shown) [Example 739] | 301 | 17
CCC(C)C(C(=O)NO)N1C(=O)CSC1c1ccc(SC)cc1 (stereo not shown) [Example 176] | 1060 | 100
O=C(CN1C(=O)/C(=C/c2ccc(-c3ccc(Br)cc3)o2)Sc2ccccc21)NO [Example 389] | > 50000 | 29000
O=C(CN1C(=O)C(=Cc2ccccn2)Sc2ccccc21)NO [Example 378] | > 50000 | 16000
O=C(CN1C(=O)C(Cc2cccnc2)Sc2ccccc21)NO (stereo not shown) [Example 423] | 5130 | 1220
CC(C)CC(C(=O)NO)N1C(=O)CSC1c1ccc(-c2ccc(Cl)cc2)o1 (stereo not shown) [Example 46] | 894 | 134
O=C(CN1C(=O)C(Cc2ccc(O)cc2)Sc2ccccc21)NO (stereo not shown) [Example 406, 2H-2-(4-Hydroxybenzyl)-1,4-benzothiazin-3(4H)-one-4-yl-acetic Acid N-Hydroxyamide] | 3230 | 257
CCCCC#Cc1ccc(C2SCC(=O)N2C(CC(C)C)C(=O)NO)cc1 (stereo not shown) [Example 42] | > 10000 | 759
COCCNC(=O)CC1C(=O)N(C(CC(C)C)C(=O)NO)C(c2ccc(Oc3ccc(Cl)cc3)cc2)[S+]1[O-] (stereo not shown) [Example 740] | 459 | 12
COc1ccc(NC(=O)CC2Sc3ccccc3N(CC(=O)NO)C2=O)cc1 (stereo not shown) [Example 441, 2H-2-[N′-(4-Methoxyphenyl)-carbamoylmethyl]-1,4-benzothiazin-3(4H)-one-4-yl-acetic Acid N-Hydroxylamide] | 2960 | 118
Cc1ccc(CC2Sc3ccccc3N(CC(=O)NO)C2=O)cc1 (stereo not shown) [Example 407, 2H-2-(4-Methylbenzyl)-1,4-benzothiazin-3(4H)-one-4-yl-acetic acid N-hydroxyamide] | 433 | 24
COc1ccc(C2SC(CC(=O)Nc3ccccn3)C(=O)N2C(Cc2ccc(OC(C)(C)C)cc2)C(=O)NO)cc1 (stereo not shown) [Example 361] | 446 | 53
COc1cccc(C2SC(CC(=O)NO)C(=O)N2CC(Cl)CCCCl)c1[N+](=O)[O-] (stereo not shown) [Example 10] | 31600 | 5300
CCCCC(C(=O)NO)N1C(=O)CSC1c1cc2ccccc2o1 (stereo not shown) [Example 195] | 1890 | 119
COc1ccc(C2SC(CC(=O)NCc3cccnc3)C(=O)N2C(Cc2ccccc2)C(=O)NO)cc1 (stereo not shown) [Example 211] | 895 | 108
COc1cccc(C2SC(CC(=O)NO)C(=O)N2CCc2ccc(O)cc2)c1OC (stereo not shown) [Example 19] | 1000 | > 50000
COCCCNC(=O)CC1SC(c2ccc(OC)cc2)N(C(Cc2ccc(OC(C)(C)C)cc2)C(=O)NO)C1=O (stereo not shown) [Example 329] | 155 | 11
O=C(CN1C(=O)C(Cc2ccc(Br)cc2)Sc2ccccc21)NO (stereo not shown) [Example 426] | 375 | 38
